Columns and labels:
IBSR = IBSR (Homo sapiens, UniProt P06213); test: Kinase profiling, single-dose in vitro kinase assay (Caliper Life Sciences); conditions: read-out: Average % Inhibition IBSR
MARK1 = MARK1 (Homo sapiens, UniProt Q9P0L2); test: as above; conditions: read-out: Average % Inhibition MARK1
PDGFRα = PDGFRα (Homo sapiens, UniProt P16234); test: as above; conditions: read-out: Average % Inhibition PDGFRα
ErbB4 = ErbB4 (Homo sapiens, UniProt Q15303); test: as above; conditions: read-out: Average % Inhibition ErbB4
ErbB4, sequence (Q15303 26-1308): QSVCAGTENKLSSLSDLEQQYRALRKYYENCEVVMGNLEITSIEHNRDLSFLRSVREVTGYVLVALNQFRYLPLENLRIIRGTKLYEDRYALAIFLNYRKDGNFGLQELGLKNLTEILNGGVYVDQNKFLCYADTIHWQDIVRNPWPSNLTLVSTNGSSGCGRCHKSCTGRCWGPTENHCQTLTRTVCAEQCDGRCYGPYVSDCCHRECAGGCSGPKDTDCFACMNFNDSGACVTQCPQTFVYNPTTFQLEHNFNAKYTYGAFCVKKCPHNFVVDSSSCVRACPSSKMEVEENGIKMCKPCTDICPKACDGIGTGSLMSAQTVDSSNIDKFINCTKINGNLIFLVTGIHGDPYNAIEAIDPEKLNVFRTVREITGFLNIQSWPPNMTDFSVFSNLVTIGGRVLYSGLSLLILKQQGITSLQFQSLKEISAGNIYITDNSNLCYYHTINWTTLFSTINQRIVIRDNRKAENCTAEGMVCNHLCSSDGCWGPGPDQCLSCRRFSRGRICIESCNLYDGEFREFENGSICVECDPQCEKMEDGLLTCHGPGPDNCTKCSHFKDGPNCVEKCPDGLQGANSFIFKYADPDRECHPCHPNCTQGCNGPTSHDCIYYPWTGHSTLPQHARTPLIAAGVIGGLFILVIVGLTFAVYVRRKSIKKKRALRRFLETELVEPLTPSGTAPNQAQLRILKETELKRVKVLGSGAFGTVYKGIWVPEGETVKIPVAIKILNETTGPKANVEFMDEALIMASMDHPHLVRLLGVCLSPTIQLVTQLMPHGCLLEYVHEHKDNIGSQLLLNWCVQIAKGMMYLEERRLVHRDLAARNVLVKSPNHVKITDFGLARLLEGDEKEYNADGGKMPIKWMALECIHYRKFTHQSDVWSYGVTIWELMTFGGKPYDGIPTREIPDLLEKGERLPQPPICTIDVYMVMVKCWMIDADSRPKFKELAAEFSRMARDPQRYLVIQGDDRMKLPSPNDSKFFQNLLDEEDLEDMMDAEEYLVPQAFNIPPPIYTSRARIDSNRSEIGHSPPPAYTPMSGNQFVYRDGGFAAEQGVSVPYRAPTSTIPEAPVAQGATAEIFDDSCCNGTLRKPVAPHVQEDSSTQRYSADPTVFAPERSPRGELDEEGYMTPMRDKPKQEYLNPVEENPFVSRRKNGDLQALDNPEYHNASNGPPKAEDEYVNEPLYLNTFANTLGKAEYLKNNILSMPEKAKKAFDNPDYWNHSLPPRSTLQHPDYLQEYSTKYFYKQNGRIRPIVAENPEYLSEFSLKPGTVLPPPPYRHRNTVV

PAK2 = PAK2 (Homo sapiens, UniProt Q13177); test: as above; conditions: read-out: Average % Inhibition PAK2
PAK2, sequence (Q13177 whole entry): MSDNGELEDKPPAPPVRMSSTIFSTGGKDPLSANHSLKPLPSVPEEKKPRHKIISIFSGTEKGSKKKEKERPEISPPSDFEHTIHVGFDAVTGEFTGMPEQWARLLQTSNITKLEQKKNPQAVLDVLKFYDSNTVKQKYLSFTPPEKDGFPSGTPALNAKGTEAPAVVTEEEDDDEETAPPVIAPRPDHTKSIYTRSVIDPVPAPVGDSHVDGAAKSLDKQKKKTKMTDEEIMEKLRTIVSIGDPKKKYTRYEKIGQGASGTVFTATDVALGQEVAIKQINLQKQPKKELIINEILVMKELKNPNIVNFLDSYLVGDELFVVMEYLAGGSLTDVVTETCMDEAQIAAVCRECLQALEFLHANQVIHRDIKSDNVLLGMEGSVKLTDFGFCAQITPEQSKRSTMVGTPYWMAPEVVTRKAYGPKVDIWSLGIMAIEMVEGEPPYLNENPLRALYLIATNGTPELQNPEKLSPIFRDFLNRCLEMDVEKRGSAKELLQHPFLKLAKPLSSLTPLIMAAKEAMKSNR

PIM2 = PIM2 (Homo sapiens, UniProt Q9P1W9); test: as above; conditions: read-out: Average % Inhibition PIM2
PIM2, sequence (Q9P1W9 whole entry): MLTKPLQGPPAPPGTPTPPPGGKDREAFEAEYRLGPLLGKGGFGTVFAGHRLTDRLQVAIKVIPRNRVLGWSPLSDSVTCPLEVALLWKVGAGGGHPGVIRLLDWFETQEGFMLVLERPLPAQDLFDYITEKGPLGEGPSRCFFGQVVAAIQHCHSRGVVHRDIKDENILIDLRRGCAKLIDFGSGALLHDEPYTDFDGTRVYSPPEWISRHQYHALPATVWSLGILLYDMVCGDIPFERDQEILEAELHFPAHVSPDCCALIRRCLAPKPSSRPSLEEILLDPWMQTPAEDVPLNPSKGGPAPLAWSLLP

AKT1 = AKT1 (Homo sapiens, UniProt P31749); test: as above; conditions: read-out: Average % Inhibition AKT1
AKT1, sequence (P31749 whole entry): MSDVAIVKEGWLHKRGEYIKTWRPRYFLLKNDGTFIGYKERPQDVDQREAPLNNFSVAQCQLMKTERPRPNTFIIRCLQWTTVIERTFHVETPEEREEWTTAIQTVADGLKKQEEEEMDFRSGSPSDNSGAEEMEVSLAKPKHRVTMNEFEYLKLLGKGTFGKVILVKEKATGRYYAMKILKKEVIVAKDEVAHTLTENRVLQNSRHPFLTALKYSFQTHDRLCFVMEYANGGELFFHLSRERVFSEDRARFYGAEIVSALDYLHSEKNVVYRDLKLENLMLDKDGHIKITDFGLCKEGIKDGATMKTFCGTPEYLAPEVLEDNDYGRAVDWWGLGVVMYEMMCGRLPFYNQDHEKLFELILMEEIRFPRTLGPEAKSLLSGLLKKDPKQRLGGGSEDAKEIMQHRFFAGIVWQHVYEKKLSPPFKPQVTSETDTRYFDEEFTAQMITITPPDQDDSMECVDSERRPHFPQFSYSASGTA

PKCγ = PKCγ (Homo sapiens, UniProt P05129); test: as above; conditions: read-out: Average % Inhibition PKCγ
SYK = SYK (Homo sapiens, UniProt P43405); test: as above; conditions: read-out: Average % Inhibition SYK
FLT3 = FLT3 (Homo sapiens, UniProt P36888); test: as above; conditions: read-out: Average % Inhibition FLT3
PLK1 = tested on: PLK1; set-up: method as in PMID 18829454; conditions: previously reported; cited from earlier work
PKCδ = target: T1, PKCδ (Homo sapiens, UniProt Q05655); set-up: method as in PMID 18829454; conditions: previously reported; cited from earlier work
T1 construct: purchased Enzo Life Sciences

p38a = p38a (Homo sapiens, UniProt Q16539); test: Kinase profiling, single-dose in vitro kinase assay (Caliper Life Sciences); conditions: read-out: Average % Inhibition p38a
PKA = PKA (Homo sapiens, UniProt P17612); test: as above; conditions: read-out: Average % Inhibition PKA
PKCζ = PKCζ (Homo sapiens, UniProt Q05513); test: as above; conditions: read-out: Average % Inhibition PKCζ
PKCθ = PKCθ (Homo sapiens, UniProt Q04759); test: as above; conditions: read-out: Average % Inhibition PKCθ
PKCβI = target: T2, PKCβI (Homo sapiens, UniProt P05771); set-up: method as in PMID 18829454; conditions: previously reported; cited from earlier work
T2 construct: purchased Cell Signaling Technology

IGF1R = IGF1R (Homo sapiens, UniProt P08069); test: Kinase profiling, single-dose in vitro kinase assay (Caliper Life Sciences); conditions: read-out: Average % Inhibition IGF1R
Erk2 = Erk2 (Homo sapiens, UniProt P28482); test: as above; conditions: read-out: Average % Inhibition Erk2
MSK1 = MSK1 (Homo sapiens, UniProt O75582); test: as above; conditions: read-out: Average % Inhibition MSK1
IRAK4 = IRAK4 (Homo sapiens, UniProt Q9NWZ3); test: as above; conditions: read-out: Average % Inhibition IRAK4
IRAK4, sequence (Q9NWZ3 whole entry): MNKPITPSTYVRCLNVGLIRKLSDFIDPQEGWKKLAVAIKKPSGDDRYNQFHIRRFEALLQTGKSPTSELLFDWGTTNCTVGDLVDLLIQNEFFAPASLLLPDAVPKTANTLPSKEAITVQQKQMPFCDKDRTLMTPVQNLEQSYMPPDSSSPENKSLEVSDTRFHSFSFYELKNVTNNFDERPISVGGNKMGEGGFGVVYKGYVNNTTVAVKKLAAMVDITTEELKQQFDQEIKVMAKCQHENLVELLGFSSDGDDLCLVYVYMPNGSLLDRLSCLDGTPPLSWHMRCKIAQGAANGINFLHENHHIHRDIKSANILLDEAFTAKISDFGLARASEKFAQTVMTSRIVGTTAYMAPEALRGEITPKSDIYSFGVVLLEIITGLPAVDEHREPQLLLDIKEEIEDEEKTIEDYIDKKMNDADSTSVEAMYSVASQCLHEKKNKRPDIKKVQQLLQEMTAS

PKCη = PKCη (Homo sapiens, UniProt P24723); test: as above; conditions: read-out: Average % Inhibition PKCη

PDGFRα, sequence (P16234 24-1089): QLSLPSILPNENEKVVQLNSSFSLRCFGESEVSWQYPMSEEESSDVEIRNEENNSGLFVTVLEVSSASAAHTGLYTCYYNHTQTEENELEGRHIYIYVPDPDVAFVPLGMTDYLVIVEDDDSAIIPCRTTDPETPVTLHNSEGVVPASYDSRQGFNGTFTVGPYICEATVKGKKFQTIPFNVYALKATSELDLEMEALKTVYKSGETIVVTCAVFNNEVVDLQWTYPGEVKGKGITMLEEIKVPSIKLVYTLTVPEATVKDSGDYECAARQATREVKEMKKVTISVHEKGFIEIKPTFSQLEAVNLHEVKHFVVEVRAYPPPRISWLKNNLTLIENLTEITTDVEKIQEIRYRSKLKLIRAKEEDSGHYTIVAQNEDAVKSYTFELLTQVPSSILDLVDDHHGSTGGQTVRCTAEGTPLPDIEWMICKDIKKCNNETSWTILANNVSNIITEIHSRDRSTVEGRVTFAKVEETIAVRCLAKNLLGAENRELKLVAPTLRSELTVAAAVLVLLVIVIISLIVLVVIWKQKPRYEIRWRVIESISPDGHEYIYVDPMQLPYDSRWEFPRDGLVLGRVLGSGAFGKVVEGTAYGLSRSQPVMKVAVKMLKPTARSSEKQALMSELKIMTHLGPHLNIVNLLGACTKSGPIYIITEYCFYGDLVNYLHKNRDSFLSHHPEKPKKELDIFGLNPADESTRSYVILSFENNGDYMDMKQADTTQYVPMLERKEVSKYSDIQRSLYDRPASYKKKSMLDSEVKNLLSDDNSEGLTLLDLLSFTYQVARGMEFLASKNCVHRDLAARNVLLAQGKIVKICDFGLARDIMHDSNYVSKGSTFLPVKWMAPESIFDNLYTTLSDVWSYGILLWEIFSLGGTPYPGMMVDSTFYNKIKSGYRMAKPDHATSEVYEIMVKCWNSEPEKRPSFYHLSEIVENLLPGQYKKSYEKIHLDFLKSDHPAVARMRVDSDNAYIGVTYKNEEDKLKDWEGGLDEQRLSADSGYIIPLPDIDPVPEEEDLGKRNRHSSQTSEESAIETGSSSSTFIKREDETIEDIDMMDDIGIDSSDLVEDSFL
MARK1, sequence (Q9P0L2 whole entry): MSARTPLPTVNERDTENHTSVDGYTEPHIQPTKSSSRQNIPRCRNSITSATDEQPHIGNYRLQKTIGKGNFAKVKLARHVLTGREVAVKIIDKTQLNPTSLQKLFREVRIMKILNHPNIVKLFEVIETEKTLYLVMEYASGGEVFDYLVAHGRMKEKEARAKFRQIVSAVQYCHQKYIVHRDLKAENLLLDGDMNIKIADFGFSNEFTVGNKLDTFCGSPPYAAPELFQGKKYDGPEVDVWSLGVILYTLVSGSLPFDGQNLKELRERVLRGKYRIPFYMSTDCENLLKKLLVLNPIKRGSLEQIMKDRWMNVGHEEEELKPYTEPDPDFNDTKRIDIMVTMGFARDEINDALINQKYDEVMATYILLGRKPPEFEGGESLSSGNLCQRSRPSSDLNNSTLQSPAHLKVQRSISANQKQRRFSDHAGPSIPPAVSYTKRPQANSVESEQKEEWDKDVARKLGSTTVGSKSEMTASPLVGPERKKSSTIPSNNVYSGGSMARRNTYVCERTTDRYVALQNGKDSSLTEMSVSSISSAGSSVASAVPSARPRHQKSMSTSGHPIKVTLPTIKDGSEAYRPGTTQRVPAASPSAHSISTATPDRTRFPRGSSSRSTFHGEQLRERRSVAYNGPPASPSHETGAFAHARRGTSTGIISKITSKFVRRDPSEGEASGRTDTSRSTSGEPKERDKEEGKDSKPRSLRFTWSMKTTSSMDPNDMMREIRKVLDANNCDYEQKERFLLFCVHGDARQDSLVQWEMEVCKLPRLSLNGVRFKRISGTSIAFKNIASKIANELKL

O=C1NCCCc2c1oc1ccc(O)cc21 [CID755673, 7-Hydroxy-2,3,4,5-tetrahydro-[1]benzoxolo[2,3-c]azepin-1-one] showed an inhibition at 10 µM (IBSR) of 3%, an inhibition at 10 µM (MARK1) of 12% and an inhibition at 10 µM (PDGFRα) of 5%. It also gave an inhibition at 10 µM (ErbB4) of 1%, an inhibition at 10 µM (PAK2) of 3% and an inhibition at 10 µM (PIM2) of 6%. It also gave an inhibition at 10 µM (AKT1) of 3%, an inhibition at 10 µM (PKCγ) of 30% and an inhibition at 10 µM (SYK) of -8%. For the same compound, the inhibition at 10 µM (FLT3) was 14%, the “inhibition of PLK1” value (PLK1) was “did not inhibit” and the “inhibition of PKCδ” value (PKCδ) was “did not inhibit”. It also gave an inhibition at 10 µM (p38a) of 2%, an inhibition at 10 µM (PKA) of 6% and an inhibition at 10 µM (PKCζ) of -4%. For the same compound, the inhibition at 10 µM (PKCθ) was 32%, the “inhibition of PKCβI” value (PKCβI) was “did not inhibit” and the inhibition at 10 µM (IGF1R) was -2%. It also gave an inhibition at 10 µM (Erk2) of 31%, an inhibition at 10 µM (MSK1) of 7% and an inhibition at 10 µM (IRAK4) of 0%. The inhibition at 10 µM (PKCη) was 40%.
